One test concerns the target T1, Orexin receptor type 2 (Homo sapiens, UniProt O43614).
T1 sequence (O43614 whole entry): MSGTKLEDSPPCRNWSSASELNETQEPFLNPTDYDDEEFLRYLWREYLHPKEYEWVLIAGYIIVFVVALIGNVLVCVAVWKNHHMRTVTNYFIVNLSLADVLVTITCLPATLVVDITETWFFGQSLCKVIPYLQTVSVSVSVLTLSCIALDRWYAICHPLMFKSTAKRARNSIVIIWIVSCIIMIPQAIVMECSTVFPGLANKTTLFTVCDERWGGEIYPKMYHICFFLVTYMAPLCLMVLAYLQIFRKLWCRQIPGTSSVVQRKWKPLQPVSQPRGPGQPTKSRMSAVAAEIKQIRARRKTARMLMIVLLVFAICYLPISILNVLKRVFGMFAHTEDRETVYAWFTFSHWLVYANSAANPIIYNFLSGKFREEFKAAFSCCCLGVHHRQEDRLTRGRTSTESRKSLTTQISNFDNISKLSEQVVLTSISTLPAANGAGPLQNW
Kind of test: Inhibition of human orexin 2.

Test [1] has as its target T2, Orexin/Hypocretin receptor type 1 (Homo sapiens, UniProt O43613).
T2 sequence (O43613 whole entry): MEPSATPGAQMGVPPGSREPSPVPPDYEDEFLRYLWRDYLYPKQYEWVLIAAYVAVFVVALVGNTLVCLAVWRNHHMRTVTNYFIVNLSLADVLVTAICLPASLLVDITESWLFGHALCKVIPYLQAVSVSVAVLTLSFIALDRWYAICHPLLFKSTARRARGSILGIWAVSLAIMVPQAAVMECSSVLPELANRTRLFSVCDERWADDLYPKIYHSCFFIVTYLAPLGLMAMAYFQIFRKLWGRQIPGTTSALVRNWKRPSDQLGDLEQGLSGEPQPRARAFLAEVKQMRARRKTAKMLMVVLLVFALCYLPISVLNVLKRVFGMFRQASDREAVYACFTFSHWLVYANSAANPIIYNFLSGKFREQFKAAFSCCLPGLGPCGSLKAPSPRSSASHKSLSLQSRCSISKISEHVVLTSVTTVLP
Kind of test: Inhibition of human orexin 1.

The target of test [2] is T3, Orexin/Hypocretin receptor type 1 (Homo sapiens) (UniProt O43613).
T3 sequence (whole entry): T2 sequence (O43613 whole entry)
Kind of test: Antagonist activity at human OX1 receptor. The following applies: filed as antagonist.

The nature of test [3]: Displacement of [125I]-Ang II from rat liver membrane AT1R incubated for 3 hrs. In kind it is cell membranes. In general terms: Displacement assays read how much labelled ligand stays bound in the presence of the test substance.
A short description of test [4]: Displacement of [125I]-Ang II from rabbit uterine membrane AT2R incubated for 3 hrs in presence of DuP 753. The format is cell membranes, Oryctolagus cuniculus, Uterus.

Regarding `Cc1ccc(-c2ncccn2)c(C(=O)N2C[C@@H]3C[C@@H]3C[C@H]2CNc2nnc(C(F)(F)F)s2)n1`, the Ki – broadly, a measure of affinity in units of concentration, obtained from inhibition or displacement – on Orexin receptor type 2 is 1580 nM; in test [1], 79.4 nM.
As to `Cc1ccc(-c2cnccn2)c(C(=O)N2CCC3(CC3)C[C@H]2CNc2cccc(C(F)(F)F)n2)c1`, in test [2], the pKb (usually the negative decadic logarithm of the Kb, by convention in mol/L) turned out to be 8.
For the molecule `COc1ccc2c(c1OCc1ccccc1)C[C@@H](C(=O)O)N(C(=O)C(c1ccccc1)c1ccccc1)C2` [OLODANRIGAN], the IC50 (commonly the concentration that gives 50% inhibition) is above 10000 nM in test [3] and 0.58 nM in test [4].
For `Cc1cc(Cn2cnc3c2C[C@@H](C(=O)O)N(C(=O)C(c2ccccc2)c2ccccc2)C3)ccc1N(C)C` the same measures were above 10000 nM and 6.9 nM.

(Values after ChEMBL document CHEMBL5230126, “Cyclic tailor-made amino acids in the design of modern pharmaceuticals” (Eur J Med Chem, 2020).)
